{
  "source": "paper PMC5349447",
  "about": "“Applying a high-throughput fluorescence polarization assay for the discovery of chemical probes blocking La:RNA interactions in vitro and in cells” (PLoS ONE, 2017)",
  "format_in_all_cases": "cell-based, human",
  "key": {"[1]": {"system": "Bcl2 protein level in SCC 22A cells", "assay": "Immunoblot for Bcl2, SCC 22A", "conditions": "cisplatin and C2.01 (50 μM) versus vehicle"}, "[2]": {"system": "SCC 22A cells", "assay": "Phase contrast microscopy and cisplatin IC50, SCC 22A", "conditions": "C2.01 (50 μM) combined with cisplatin 12 μM"}, "[3]": {"system": "SCC 22B cells", "assay": "Cisplatin sensitization, CyQUANT, SCC 22B", "conditions": "50 μM C2.01 pretreatment", "procedure": "To test whether compound C2.01 sensitizes cells for cisplatin, cells were treated with 0.2% DMSO alone, cisplatin at 4, 8, 16, 32 or 64 μM concentration alone or in combination with 50 μM compound C2.01. The half maximal inhibitory concentration (IC50) of cisplatin was determined by treating SCC 22B cells with increasing cisplatin (Selleckchem) concentrations or vehicle (DMSO) for 48 h (96-well format) as described recently. For this experiments 1x10^4 SCC 22B cells were plated the day before the experiment. DMSO or C2.01 was added to a final concentration of DMSO (0.05%) and C2.01 (50 μM). Six hours later the different cisplatin concentrations were added. The highest DMSO concentration of 0.25% was used in the control for cisplatin and C2.01 double treatment. Subsequently, cells were washed twice with 1x PBS and quantified after staining with fluorescence dye (CyQUANT®, Life Technologies) 48 after the initial C2.01 treatment."}, "[4]": {"system": "Bcl2 protein level in SCC 22B cells", "assay": "Immunoblot for Bcl2, SCC 22B", "conditions": "cisplatin and C2.01 (50 μM) versus vehicle"}},
  "data": [
    {"smiles": "Cc1ccc(C(=O)c2ccccc2C(=O)O)c(O)c1", "note": "[C2.01, 2-(2-hydroxy-4-methylbenzoyl)benzoic acid]", "values": [
      {"measurement": "Bcl2 protein levels (immunoblot)", "setting": "[1]", "value": "reduced"},
      {"measurement": "cell number by phase contrast images", "setting": "[2]", "value": "dramatically reduced cell number"},
      {"measurement": "sensitization of SCC 22B cells for cisplatin treatment", "setting": "[3]", "value": "sensitizes"},
      {"measurement": "Bcl2 protein levels (immunoblot)", "setting": "[4]", "value": "reduced"}
    ]}
  ]
}
